Test results: patent US12077503B2, “Substituted cyclic amides and their use as herbicides” (FMC CORPORATION, priority 2015, dated 2024)

Experiments:
Assay type in all cases: in vivo
[1] = system: corn (Zea mays); experiment: Test G Pre-Emergence Protocol; conditions: Zea mays, pre-emergence, 312 h, evaluated after 13 days; for plant injury at 15.625 g/ha: 15.625 g ai/ha; for plant injury at 15.625 g/ha / plant injury at 250 g/ha: read-out: Corn damage rating (100=total damage to plant; 0=no damage to plant); for plant injury at 62.5 g/ha: 62.5 g ai/ha, 100=total damage to plant, 0=no damage to plant, read-out: Corn damage rating; for plant injury at 250 g/ha: 250 g ai/ha
Outline: (§1)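 Glasshouse pre-emergence test: soil-sown seeds, sprayed after 1 d at 15.625, 62.5 or 250 g/ha. Conditions 24/16° C day/night, 14 h light, 65% humidity, watering twice daily. Rating 13 d post-spray (100 = total damage).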

[2] = system: velvetleaf (Abutilon theophrasti); experiment: Test G Pre-Emergence Protocol; conditions: Abutilon theophrasti, pre-emergence, 312 h, evaluated after 13 days; for pest or weed control at 15.625 g/ha: 15.625 g ai/ha; for pest or weed control at 15.625 g/ha / pest or weed control at 250 g/ha: read-out: Velvetleaf damage rating (100=total damage to plant; 0=no damage to plant); for pest or weed control at 62.5 g/ha: 62.5 g ai/ha, 100=total damage to plant, 0=no damage to plant, read-out: Velvetleaf damage rating; for pest or weed control at 250 g/ha: 250 g ai/ha
Outline: as §1

[3] = system: barnyardgrass (Echinochloa crus-galli); experiment: Test G Pre-Emergence Protocol; conditions: Echinochloa crus-galli, pre-emergence, 312 h, evaluated after 13 days; for pest or weed control at 15.625 g/ha: 15.625 g ai/ha; for pest or weed control at 15.625 g/ha / pest or weed control at 250 g/ha: read-out: Barnyardgrass damage rating (100=total damage to plant; 0=no damage to plant); for pest or weed control at 62.5 g/ha: 62.5 g ai/ha, 100=total damage to plant, 0=no damage to plant, read-out: Barnyardgrass damage rating; for pest or weed control at 250 g/ha: 250 g ai/ha
Outline: as §1

[4] = system: giant foxtail (Setaria faberi); experiment: Test G Pre-Emergence Protocol; conditions: Setaria faberi, pre-emergence, 312 h, evaluated after 13 days; for pest or weed control at 15.625 g/ha: 15.625 g ai/ha; for pest or weed control at 15.625 g/ha / pest or weed control at 250 g/ha: read-out: Foxtail, Giant damage rating (100=total damage to plant; 0=no damage to plant); for pest or weed control at 62.5 g/ha: 62.5 g ai/ha, 100=total damage to plant, 0=no damage to plant, read-out: Foxtail, Giant damage rating; for pest or weed control at 250 g/ha: 250 g ai/ha
Outline: as §1

[5] = system: redroot pigweed (Amaranthus retroflexus); experiment: Test G Pre-Emergence Protocol; conditions: Amaranthus retroflexus, pre-emergence, 312 h, evaluated after 13 days; for pest or weed control at 15.625 g/ha: 15.625 g ai/ha; for pest or weed control at 15.625 g/ha / pest or weed control at 250 g/ha: read-out: Pigweed, Redroot damage rating (100=total damage to plant; 0=no damage to plant); for pest or weed control at 62.5 g/ha: 62.5 g ai/ha, 100=total damage to plant, 0=no damage to plant, read-out: Pigweed, Redroot damage rating; for pest or weed control at 250 g/ha: 250 g ai/ha
Outline: as §1

[6] = system: ivy-leaved morning glory (Ipomoea hederacea); experiment: Test G Pre-Emergence Protocol; conditions: Ipomoea, pre-emergence, 312 h, evaluated after 13 days; for pest or weed control at 62.5 g/ha: 62.5 g ai/ha, 100=total damage to plant, 0=no damage to plant, read-out: Morningglory, Ivy-leaved damage rating; for pest or weed control at 250 g/ha: 250 g ai/ha
Outline: as §1

[7] = system: corn (Zea mays); experiment: Test G Post-Emergence Protocol; conditions: Zea mays, post-emergence, 312 h, read-out: Corn damage rating; for plant injury at 15.625 g/ha: 15.625 g ai/ha, evaluated after 13 days (100=total damage to plant; 0=no damage to plant); for plant injury at 62.5 g/ha: 62.5 g ai/ha; for plant injury at 62.5 g/ha / plant injury at 250 g/ha: evaluated after 13 days, 100=total damage to plant, 0=no damage to plant; for plant injury at 250 g/ha: 250 g ai/ha
Outline: (§2)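 Foliar application was made 8 days after sowing, using an aqueous spray of the active in acetone/water (50:50) with 0.5% Tween 20, at doses of 15.625, 62.5 or 250 g/ha. Injury was assessed 13 days later, where 100 meant the plant was fully damaged.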

[8] = system: velvetleaf (Abutilon theophrasti); experiment: Test G Post-Emergence Protocol; conditions: Abutilon theophrasti, post-emergence, 312 h, read-out: Velvetleaf damage rating; for pest or weed control at 15.625 g/ha: 15.625 g ai/ha, evaluated after 13 days (100=total damage to plant; 0=no damage to plant); for pest or weed control at 62.5 g/ha: 62.5 g ai/ha; for pest or weed control at 62.5 g/ha / pest or weed control at 250 g/ha: evaluated after 13 days, 100=total damage to plant, 0=no damage to plant; for pest or weed control at 250 g/ha: 250 g ai/ha
Outline: as §2

[9] = system: barnyardgrass (Echinochloa crus-galli); experiment: Test G Post-Emergence Protocol; conditions: Echinochloa crus-galli, post-emergence, 312 h, read-out: Barnyardgrass damage rating; for pest or weed control at 15.625 g/ha: 15.625 g ai/ha, evaluated after 13 days (100=total damage to plant; 0=no damage to plant); for pest or weed control at 62.5 g/ha: 62.5 g ai/ha; for pest or weed control at 62.5 g/ha / pest or weed control at 250 g/ha: evaluated after 13 days, 100=total damage to plant, 0=no damage to plant; for pest or weed control at 250 g/ha: 250 g ai/ha
Outline: as §2

[10] = system: giant foxtail (Setaria faberi); experiment: Test G Post-Emergence Protocol; conditions: Setaria faberi, post-emergence, 312 h, read-out: Foxtail, Giant damage rating; for pest or weed control at 15.625 g/ha: 15.625 g ai/ha, evaluated after 13 days (100=total damage to plant; 0=no damage to plant); for pest or weed control at 62.5 g/ha: 62.5 g ai/ha; for pest or weed control at 62.5 g/ha / pest or weed control at 250 g/ha: evaluated after 13 days, 100=total damage to plant, 0=no damage to plant; for pest or weed control at 250 g/ha: 250 g ai/ha
Outline: as §2

[11] = system: redroot pigweed (Amaranthus retroflexus); experiment: Test G Post-Emergence Protocol; conditions: Amaranthus retroflexus, post-emergence, 312 h, read-out: Pigweed, Redroot damage rating; for pest or weed control at 15.625 g/ha: 15.625 g ai/ha, evaluated after 13 days (100=total damage to plant; 0=no damage to plant); for pest or weed control at 62.5 g/ha: 62.5 g ai/ha; for pest or weed control at 62.5 g/ha / pest or weed control at 250 g/ha: evaluated after 13 days, 100=total damage to plant, 0=no damage to plant; for pest or weed control at 250 g/ha: 250 g ai/ha
Outline: as §2

[12] = system: ivy-leaved morning glory (Ipomoea hederacea); experiment: Test G Post-Emergence Protocol; conditions: Ipomoea, post-emergence, 312 h, read-out: Morningglory, Ivy-leaved damage rating; for pest or weed control at 15.625 g/ha: 15.625 g ai/ha, evaluated after 13 days (100=total damage to plant; 0=no damage to plant); for pest or weed control at 62.5 g/ha: 62.5 g ai/ha; for pest or weed control at 62.5 g/ha / pest or weed control at 250 g/ha: evaluated after 13 days, 100=total damage to plant, 0=no damage to plant; for pest or weed control at 250 g/ha: 250 g ai/ha
Outline: as §2

[13] = read-out: Morningglory, Ivy-leaved damage rating (100=total damage to plant; 0=no damage to plant)

COc1cc(C2CN(C)C(=O)C2C(=O)Nc2cccc(F)c2F)cc(Cl)c1OC (centres unmarked) [Compound 1704]
plant injury at 15.625 g/ha [1]: 0% | plant injury at 62.5 g/ha [1]: 50% | plant injury at 250 g/ha [1]: 80% | pest or weed control at 15.625 g/ha [2]: 0% | pest or weed control at 62.5 g/ha [2]: 0% | pest or weed control at 250 g/ha [2]: 10% | pest or weed control at 15.625 g/ha [3]: 40% | pest or weed control at 62.5 g/ha [3]: 70% | pest or weed control at 250 g/ha [3]: 80% | pest or weed control at 15.625 g/ha [4]: 50% | pest or weed control at 62.5 g/ha [4]: 80% | pest or weed control at 250 g/ha [4]: 80% | pest or weed control at 15.625 g/ha [5]: 0% | pest or weed control at 62.5 g/ha [5]: 20% | pest or weed control at 250 g/ha [5]: 0% | pest or weed control at 15.625 g/ha ([6]; 15.625 g ai/ha, read-out: Morningglory, Ivy-leaved damage rating (100=total damage to plant; 0=no damage to plant)): 0% | pest or weed control at 62.5 g/ha [6]: 0% | pest or weed control at 250 g/ha [6, 13]: 30% | plant injury at 15.625 g/ha [7]: 0% | plant injury at 62.5 g/ha [7]: 20% | plant injury at 250 g/ha [7]: 80% | pest or weed control at 15.625 g/ha [8]: 0% | pest or weed control at 62.5 g/ha [8]: 0% | pest or weed control at 250 g/ha [8]: 20% | pest or weed control at 15.625 g/ha [9]: 40% | pest or weed control at 62.5 g/ha [9]: 70% | pest or weed control at 250 g/ha [9]: 80% | pest or weed control at 15.625 g/ha [10]: 70% | pest or weed control at 62.5 g/ha [10]: 80% | pest or weed control at 250 g/ha [10]: 80% | pest or weed control at 15.625 g/ha [11]: 0% | pest or weed control at 62.5 g/ha [11]: 10% | pest or weed control at 250 g/ha [11]: 10% | pest or weed control at 15.625 g/ha [12]: 30% | pest or weed control at 62.5 g/ha [12]: 20% | pest or weed control at 250 g/ha [12]: 70%

CCOc1cc(C2CN(C)C(=O)C2C(=O)Nc2cccc(F)c2F)ccc1OC (centres unmarked) [Compound 1719]
plant injury at 15.625 g/ha [1]: 0% | plant injury at 62.5 g/ha [1]: 10% | plant injury at 250 g/ha [1]: 60% | pest or weed control at 15.625 g/ha [2]: 0% | pest or weed control at 62.5 g/ha [2]: 0% | pest or weed control at 250 g/ha [2]: 0% | pest or weed control at 15.625 g/ha [3]: 30% | pest or weed control at 62.5 g/ha [3]: 70% | pest or weed control at 250 g/ha [3]: 90% | pest or weed control at 15.625 g/ha [4]: 70% | pest or weed control at 62.5 g/ha [4]: 90% | pest or weed control at 250 g/ha [4]: 90% | pest or weed control at 15.625 g/ha [5]: 0% | pest or weed control at 62.5 g/ha [5]: 0% | pest or weed control at 250 g/ha [5]: 20% | pest or weed control at 62.5 g/ha [6]: 0% | pest or weed control at 250 g/ha [6, 13]: 0% | plant injury at 15.625 g/ha [7]: 0% | plant injury at 62.5 g/ha [7]: 0% | plant injury at 250 g/ha [7]: 60% | pest or weed control at 15.625 g/ha [8]: 0% | pest or weed control at 62.5 g/ha [8]: 0% | pest or weed control at 250 g/ha [8]: 0% | pest or weed control at 15.625 g/ha [9]: 0% | pest or weed control at 62.5 g/ha [9]: 60% | pest or weed control at 250 g/ha [9]: 80% | pest or weed control at 15.625 g/ha [10]: 60% | pest or weed control at 62.5 g/ha [10]: 80% | pest or weed control at 250 g/ha [10]: 80% | pest or weed control at 15.625 g/ha [11]: 0% | pest or weed control at 62.5 g/ha [11]: 0% | pest or weed control at 250 g/ha [11]: 0% | pest or weed control at 15.625 g/ha [12]: 0% | pest or weed control at 62.5 g/ha [12]: 10% | pest or weed control at 250 g/ha [12]: 20%
